Data from patent US9556231B2, “Beta-hairpin peptidomimetics as CXC4 antagonists” (POLYPHOR AG, priority 2011, dated 2017).
Bridge positions count the residues as written; N and C are the ends. Square brackets hold non-standard residues; d marks the D form. Peptide text beside a SMILES is read from it. Lys(iPr) = CC(C)NCCCC[C@H](N)C(=O)O; Orn(iPr) = CC(C)NCCC[C@H](N)C(=O)O

Legend:
[1] = Plasma stability, human plasma; type: in vitro ADME; details: 37° C., 1440 min, read-out: human pl. cpd left at 1440 min
Protocol: (§1) The stability of the peptides in human and mouse plasma was determined by applying the following method: 346.5 μL/deep well of freshly thawed human plasma (Basler Blutspende-dienst) and mouse plasma (Harlan Sera-Lab, UK), respectively, were spiked with 3.5 μL/well of compound dissolved in DMSO/H2O (90/10 [v/v], 1 mM, triplicate) and incubated at 37° C. At t=0, 15, 30, 60, 120, 240 and 1440 min aliquots of 50 μL were transferred to filtration plate wells containing 150 μL/well of 2% formic acid in acetonitrile. Following shaking for 2 min the occurred suspensions were filtrated by vacuum. 100 μL of each filtrate were transferred to a propylene microtiter plate and dried under N2. The residual solids were reconstituted by adding 100 μL/well of water/acetonitrile, 95/5 (v/v)+0.2% formic acid and analyzed by LC/MS as follows: Column: Waters, XBridge C18, mobile phases: (A) water+0.1% formic acid and (B) acetonitrile/water, 95/5 (v/v)+0.1% formic acid, gradient: 5%-100% (B) in 1.8 minutes, electrospray ionization, MRM detection (triple quadrupole). The peak areas were determined and triplicate values are averaged. The stability is expressed in percent of the initial value at t=0·(tx/t0×100). By using the TREND function of EXCEL (Microsoft Office 2003) T1/2 were determined.

Plasma protein binding = type: in vitro ADME; details: human plasma, ultrafiltration 10 kDa
Protocol: 495 μL aliquots of human plasma (Basler Blutspendedienst) as well as 495 μL aliquots of PBS were placed in individual deepwells of a polypropylene plate (Greiner) and spiked each with 5 μL of 1 mM solutions of peptides in 90% DMSO. After shaking the plate for 2 min at 600 rpm 150 μL aliquots of the plasma/peptide mixtures were transferred in triplicates to the polypropylene filter plate (10 kDa, Millipore) whereas 150 μL aliquots of the PBS/peptide mixtures were transferred either to the individual wells of the filter plate (filtered controls) or directly into the individual wells of the receiving plate (Greiner) (non-filtered controls). The plate sandwich consisting of filter and receiving plate was incubated for 1 h at 37° C. and subsequently centrifuged at 3220 g for 2 h at 15° C. The filtrates in the receiving plate were analysed by LC/MS as follows: Column: Waters, XBridge C18, mobile phases: (A) water+0.1% formic acid and (B) acetonitrile/water, 95/5 (v/v)+0.1% formic acid, gradient: 5%-100% (B) in 1.8 min, electrospray ionization, MRM detection (triple quadrupole). The peak areas were determined and triplicate values are averaged. The binding is expressed in percent of the filtered and non-filtered controls by 100−(100×T1h/Tctr). Finally the average of these values is calculated.

[2] = Plasma stability, mouse plasma; type: in vitro ADME; details: 37° C.
Protocol: as §1

[3] = Cytotoxicity, MTT reduction assay, COS-7 cells; type: cell-based; details: African green monkey; MTT, 48 h, up to 50 μM; read-out: Cytotoxicity Cos-7 Cells GI50
Protocol: (§2) Namalwa cells (CXCR4 natively expressing non-adherent cells, ATCC CRL-1432) were cultured in RPMI1640 plus 10% FBS, and pen/strept. HELA cells were maintained in RPMI1640 plus 10% FBS, pen/strept and 2 mM L-glutamine. Cos-7 cells were grown in DMEM medium with […] glucose supplemented with 10% FCS, pen/strept and 2 mM L-glutamine. All cell lines were grown at 37° C. at 5% CO2. Cell media, media supplements, PBS-buffer, HEPES, antibiotic/antimycotic, pen/strept, non essential amino acid, L-glutamine, β-mercaptoethanol and sera were purchased from Gibco (Pailsey, UK). All fine chemicals were supplied by Merck (Darmstadt, Germany).
(§3) The cytotoxicity of the peptides to HELA cells (Acc57) and COS-7 cells (CRL-1651) was determined using the MTT reduction assay (T. Mossman, J. Immunol. Meth. 1983, 65, 55-63; M. V. Berridge, A. S. Tan, Arch. Biochem. Biophys. 1993, 303, 474-482). Briefly, the method was as follows: 4000 HELA cells/well and 3400 COS-7 cells/well were seeded and grown in 96-well microtiter plates for 24 h at 37° C. at 5% CO2. Thereafter, time zero (Tz) was determined by MTT reduction (see below). The supernatant of the remaining wells was discarded, and fresh medium and compounds in serial dilutions (12.5, 25 and 50 μM, triplicates; 0 μM, blank) were pipetted into the wells. After incubation of the cells for 48 h at 37° C. at 5% CO2 the supernatant was discarded again and 100 μL MTT reagent (0.5 mg/mL in RPMI1640 and DMEM, respectively)/well was added. Following incubation at 37° C. for 2-4 h the media were aspirated and the cells were spiked (100 μL isopropanol/well). The absorbance of the solubilized formazan was measured at 595 nm (OD595peptide). For each concentration averages were calculated from triplicates. The percentage of growth was calculated as follows: (OD595peptide−OD595Tz)/(OD595blank−OD595Tz)×100%. The GI50 (Growth Inhibition) concentrations were calculated for each peptide by using a trend line function for the concentrations (50, 25, 12.5 and 0 μM), the corresponding percentages and the value 50, (=TREND (C50:C0,%50:%0,50).

[4] = Cytotoxicity, MTT reduction assay, HELA cells; type: cell-based; details: human; MTT, 48 h, up to 50 μM; read-out: Cytotoxicity Hela Cells GI50
Protocol: as §2, §3

COc1ccc(C[C@@H]2NC(=O)[C@H](Cc3c[nH]cn3)NC(=O)[C@H](Cc3ccc(O)cc3)NC(=O)[C@@H]3CCCN3C(=O)[C@H]3CCCN3C(=O)[C@H](CCCCNC(C)C)NC(=O)[C@H](CCC(N)=O)NC(=O)[C@H](Cc3ccc(O)cc3)NC(=O)[C@@H]3CSSC[C@H](NC2=O)C(=O)N[C@@H](CO)C(=O)N[C@@H](C)C(=O)N[C@H](Cc2ccc(OC)cc2)C(=O)N[C@@H](CCCNC(C)C)C(=O)N[C@@H](CCCNC(=N)N)C(=O)N[C@@H](Cc2ccc(O)cc2)C(=O)N3)cc1 [Ex. 6, cyclo(-Tyr^1-His^2-Tyr(Me)^3-Cys^4-Ser^5-Ala^6-^DTyr(Me)^7-Orn(iPr)^8-Arg^9-Tyr^10-Cys^11-Tyr^12-Gln^13-Lys(iPr)^14-^DPro^15-Pro^16-), disulfide bond between Cys^4 and Cys^11] (cyclo(YHY(Me)CSA[dY](Me)[Orn(iPr)]RYCYQ[Lys(iPr)][dP]P); disulfide 4-11)
remaining at 24 h, 10 μM [1]: 83% | fraction unbound at 1 h, 10 μM (Plasma protein binding): 0.37 | remaining at 24 h, 10 μM ([2]; 1440 min, read-out: mouse pl. cpd left at 1440 min): 68% | mouse pl. T1/2 ([2]; up to 1440 min): 24 h | GI50 at 48 h [3]: > 50 µM | GI50 at 48 h [4]: > 50 µM
